Non-standard residues stand in square brackets, D forms with d. Residues, ends and D or L forms follow the SMILES beside them. *: point of attachment. Benzoyl(4-F) = O=C(c1ccc(F)cc1)*; Nle = CCCC[C@H](N)C(=O)O; For = O=C*
Molecular target: T1, formylated peptide receptor (FPR) (Homo sapiens, UniProt P21462)
T1 sequence (P21462 1-350): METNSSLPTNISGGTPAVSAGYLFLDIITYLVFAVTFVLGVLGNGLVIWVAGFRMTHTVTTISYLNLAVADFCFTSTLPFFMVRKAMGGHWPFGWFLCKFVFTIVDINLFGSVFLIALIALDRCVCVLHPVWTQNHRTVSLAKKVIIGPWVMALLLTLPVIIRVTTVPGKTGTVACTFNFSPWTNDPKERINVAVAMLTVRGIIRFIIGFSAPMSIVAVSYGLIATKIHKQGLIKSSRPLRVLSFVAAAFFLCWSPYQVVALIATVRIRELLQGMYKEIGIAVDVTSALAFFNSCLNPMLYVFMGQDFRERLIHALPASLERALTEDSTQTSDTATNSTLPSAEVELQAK
Experiment: Binding assay/inhibition assay: binding affinity for formylated peptide receptor (FPR), displacement of [125I] Trp-Lys-Tyr-Met-Val-DMet
Settings: read-out: Ki (Mean value ± SD)
Description: Each peptide having a different concentration (DMSO solution, 10 μL), 2 nmol/L [^125I] Trp-Lys-Tyr-Met-Val-DMet (10 μL) as radioligand, and FPR (10 μL) were added to a binding buffer (170 μL) and incubated at 25° C. for 1 hour, followed by collection by filtration (cell harvesters) using a GF/C filter coated with a polylysine buffer. After washing, radioactivity left on the filter was measured using a γ counter. [^125I] Trp-Lys-Tyr-Met-Val-DMet means a positive control having affinity for FPR and was obtained from PerkinElmer Co., Ltd. for use.
*Binding buffer: 50 mmol/L Hepes, pH 7.4, 5 mmol/L MgCl2, 1 mmol/L CaCl2, 0.2% BSA
Wash buffer: 50 mmol/L Hepes, pH 7.4, 500 mmol/L NaCl, 0.1% BSA
Polylysine buffer: Poly-L-lysine hydrobromate 100 mg/wash buffer 100 mL
Ki values in the table were calculated using the following equation (1).
IC50: Calculation from Graph Pad
[L]: Concentration of Radioligand (Adjusted to 0.2 nM)

Compound | Ki
CCCC[C@H](NC=O)C(=O)N[C@@H](CC(C)C)C(=O)N[C@@H](Cc1ccccc1)C(=O)N[C@@H](CCCC)C(=O)N[C@@H](Cc1ccc(O)cc1)C(=O)N[C@H](CCCCN)C(=O)N[C@H](CCCCNC(=O)c1ccc(F)cc1)C(N)=O [Peptide 4, formyl-Nle-Leu-Phe-Nle-Tyr-DLys-DLys-ε([^19F]FB)-NH2] (For-[Nle]LF[Nle]Y[dK][dK](Benzoyl(4-F))-NH2) | 1.22 ± 0.4 nM
CCCC[C@H](NC=O)C(=O)N[C@@H](CC(C)C)C(=O)N[C@@H](Cc1ccccc1)C(=O)N[C@@H](CCCC)C(=O)N[C@@H](Cc1ccc(O)cc1)C(=O)N[C@H](CCCCN)C(=O)N[C@H](CCCCN)C(=O)N[C@H](CCCCNC(=O)c1ccc(F)cc1)C(N)=O [Peptide 6, formyl-Nle-Leu-Phe-Nle-Tyr-DLys-DLys-DLys-ε([^19F]FB)-NH2, reference compound] (For-[Nle]LF[Nle]Y[dK][dK][dK](Benzoyl(4-F))-NH2) | 21.9 ± 12.7 nM
CCCC[C@H](NC(=O)[C@H](Cc1ccccc1)NC(=O)[C@H](CC(C)C)NC(=O)[C@H](CCSC)NC=O)C(=O)N[C@@H](Cc1ccc(O)cc1)C(=O)N[C@H](CCCCNC(=O)c1ccc(F)cc1)C(N)=O [Peptide 1, formyl-Met-Leu-Phe-Nle-Tyr-DLys-ε([^19F]FB)-NH2] (For-MLF[Nle]Y[dK](Benzoyl(4-F))-NH2) | 0.04 ± 0.04 nM
CCCC[C@H](NC(=O)[C@H](Cc1ccccc1)NC(=O)[C@H](CC(C)C)NC(=O)[C@H](CCSC)NC=O)C(=O)N[C@@H](Cc1ccc(O)cc1)C(=O)N[C@H](CCCCNC(=O)c1ccc(F)cc1)C(=O)N[C@H](CCCCN)C(N)=O [Peptide 5, formyl-Met-Leu-Phe-Nle-Tyr-DLys-ε([^19F]FB)-DLys-NH2] (For-MLF[Nle]Y[dK](Benzoyl(4-F))[dK]-NH2) | 0.63 ± 0.14 nM
CCCC[C@H](NC(=O)[C@H](Cc1ccccc1)NC(=O)[C@H](CC(C)C)NC(=O)[C@H](CCSC)NC=O)C(=O)N[C@@H](Cc1ccc(O)cc1)C(=O)N[C@H](CCCCN)C(=O)N[C@H](CCCCNC(=O)c1ccc(F)cc1)C(N)=O [Peptide 3, formyl-Met-Leu-Phe-Nle-Tyr-DLys-DLys-ε([^19F]FB)-NH2] (For-MLF[Nle]Y[dK][dK](Benzoyl(4-F))-NH2) | 0.46 ± 0.07 nM
CCCC[C@H](NC=O)C(=O)N[C@@H](CC(C)C)C(=O)N[C@@H](Cc1ccccc1)C(=O)N[C@@H](CCCC)C(=O)N[C@@H](Cc1ccc(O)cc1)C(=O)N[C@H](CCCCNC(=O)c1ccc(F)cc1)C(N)=O [Peptide 2, formyl-Nle-Leu-Phe-Nle-Tyr-DLys-ε([^19F]FB)-NH2] (For-[Nle]LF[Nle]Y[dK](Benzoyl(4-F))-NH2) | 0.4 ± 0.36 nM
